Assay: ET-1 Assay: Fibroblasts (primary human lung and dermal, HFL-1, 3T3 etc) are seeded in 96-well plates at ~15000 cells/well and serum starved for 0-48 hours. After media exchange, compounds serially diluted in DMSO are added to the cells. After a brief incubation of ~30 min, stimulants (TGFb, serum, LPA etc) are added followed by further incubation for 16-48 hours. Media is then harvested and stored frozen in plate format for later endothelin-1 (ET-1) determination by ELISA. Toxicity measurements are made using the ATPlite kit (Perkin-Elmer). ET-1 is quantified using an ELISA kit (R&D Systems). The amount of ET-1 produced in the assay wells are back-calculated using the ELISA standard. The ability of a compound to inhibit ET-1 production is typically analyzed by fitting dose-response curves to a 4-parameter logistic function to obtain an EC50 value.
Conditions: HFL1

Structure (SMILES)	EC50
O=c1ccc(C(F)(F)F)cn1-c1ccc(NCCN2CCN(CCO)CC2)cc1Cl	in the range around 125 µM
CCn1nc2c(-c3cn[nH]c3)cn(-c3ccc(OC(F)(F)F)cc3)c(=O)c2n1	< 50 µM
CCOc1ccc(-n2cc(-c3cnn(C)c3)c(NCc3ccc(F)cc3F)cc2=O)c(C)c1	< 50 µM
CCn1nc2c(-c3cnn(C)c3)cn(-c3ccc(OCCOC)cc3)c(=O)c2n1	in the range around 125 µM
CC(C)n1cc(-c2cn(-c3ccc(OC(F)(F)F)cc3)c(=O)c3c2ncn3C)cn1	< 50 µM
CCOc1ccc(-n2cc(-c3cnn(C)c3)c(NCc3ccc(OCCOC)cc3)cc2=O)c(C)c1	< 50 µM
CCOc1ccc(CNc2cc(=O)n(-c3ccc(OCC)cc3C)cc2-c2cnn(C)c2)c(C)c1	< 50 µM
CCOc1ccc(-n2cc(-c3ccnnc3)c3nn(CC)nc3c2=O)c(C)c1	< 50 µM
CCOc1ccc(-n2cc(-c3cnn(C)c3)c(NCc3ccccn3)cc2=O)c(C)c1	in the range around 125 µM
O=c1c(-c2ccc(F)cc2)c(-c2ccc(OC(F)(F)F)cc2)c1=O	< 50 µM
CC(=O)N1CCc2c(-c3cnn(C)c3)cn(-c3ccc(OC(F)(F)F)cc3)c(=O)c21	in the range around 125 µM
CCn1cc(-c2cn(-c3ccc(OC(F)(F)F)cc3)c(=O)c3c2ncn3CC)cn1	< 50 µM
CCOc1ccc(-n2cc(-c3ccnnc3)c(C)cc2=O)c(C)c1	< 50 µM
Cn1cc(-c2cn(-c3ccc(OC(F)(F)F)cc3)c(=O)c3cc[nH]c23)cn1	< 50 µM
COCCn1ccc2c(-c3cnn(C)c3)cn(-c3ccc(OC(F)(F)F)cc3)c(=O)c21	< 50 µM
CCn1nnc2c(-c3ccc(F)cc3)cn(-c3ccc(OC(F)(F)F)cc3)c(=O)c21	< 50 µM
O=c1c2[nH]cnc2c(-c2cn[nH]c2)cn1-c1ccc(OC(F)(F)F)cc1	< 50 µM
CCn1cnc2c(-c3cnn(C)c3)c[nH]c(=O)c21	in the range around 125 µM
CCn1nnc2c(=O)n(-c3ccc(OC(F)(F)F)cc3)cc(-c3cnn(C)c3)c21	< 50 µM
CCOc1ccc(-n2cc(-c3cnn(C)c3)c(OCCOCCOC)cc2=O)c(C)c1	in the range around 125 µM
Cn1cc(-c2cn(-c3ccc(OC(F)(F)F)cc3)c(=O)c3c2CCN3C(=O)OC(C)(C)C)cn1	< 50 µM
CCOc1ccc(-n2cc(-c3cnn(C)c3)c(OCCOC(C)C)cc2=O)c(C)c1	in the range around 125 µM

Structure (SMILES)	EC50
CCn1ccc2c(=O)n(-c3ccc(OC(F)(F)F)cc3)cc(-c3ccc(F)cc3)c21	< 50 µM
CCn1nnc2c(-c3cnn(C)c3)cn(-c3ccc(OC(F)(F)F)cc3)c(=O)c21	< 50 µM
O=c1c2[nH]nnc2c(-c2cn[nH]c2)cn1-c1ccc(OC(F)(F)F)cc1	in the range around 125 µM
CCn1cnc2c(-c3cn[nH]c3)cn(-c3ccc(OC(F)(F)F)cc3)c(=O)c21	< 50 µM
Cn1cc(-c2cn(-c3ccc(OC(F)(F)F)cc3)c(=O)c3c2ncn3C)cn1	< 50 µM
CCOc1ccc(-n2cc(-c3cnn(C)c3)c(NCc3ccc(C#N)cc3)cc2=O)c(C)c1	< 50 µM
CCn1nnc2c(-c3cn[nH]c3)cn(-c3ccc(OC(F)(F)F)cc3)c(=O)c21	< 50 µM
O=c1c2[nH]ncc2c(-c2ccc(F)cc2)cn1-c1ccc(OC(F)(F)F)cc1	< 50 µM
Cn1cc(-c2cn(-c3ccc(OC(F)(F)F)cc3)c(=O)c3nnn(CCF)c23)cn1	< 50 µM
CCOc1ccc(-n2cc(-c3cnn(C)c3)c(NCc3ccncc3)cc2=O)c(C)c1	in the range around 125 µM
Cn1cc(-c2cc(=O)n(-c3ccc(OC(F)(F)F)cc3)cc2-c2cnn(C)c2)cn1	in the range around 125 µM
CC(C)OCCn1ccc2c(-c3cn[nH]c3)cn(-c3ccc(OC(F)(F)F)cc3)c(=O)c21	< 50 µM
CCOCCn1ccc2c(-c3cn[nH]c3)cn(-c3ccc(OC(F)(F)F)cc3)c(=O)c21	< 50 µM
CC(C)n1nnc2c(-c3cnn(C)c3)cn(-c3ccc(OC(F)(F)F)cc3)c(=O)c21	< 50 µM
Cc1nc2c(=O)n(-c3ccc(OC(F)(F)F)cc3)cc(-c3cn[nH]c3)c2n1C	< 50 µM
CC(C)n1ccc2c(-c3cn[nH]c3)cn(-c3ccc(OC(F)(F)F)cc3)c(=O)c21	< 50 µM
CCn1ccc2c(=O)n(-c3ccc(OC(F)(F)F)cc3)cc(-c3cnn(C)c3)c21	< 50 µM
CCOc1ccc(-n2cc(-c3cnn(C)c3)c(NCc3cccnc3)cc2=O)c(C)c1	< 50 µM
Cn1cc(-c2c[nH]c(=O)c3[nH]nnc23)cn1	> 200 µM
CCn1cc2c(-c3cnn(C)c3)cn(-c3ccc(OC(F)(F)F)cc3)c(=O)c2n1	< 50 µM
CC(C)N1N=NC2C(=O)N(c3ccc(OC(F)(F)F)cc3)C=C(c3cnn(C)c3)C21 (centres undefined)	in the range around 125 µM
O=c1c2[nH]nnc2c(-c2ccc(F)cc2)cn1-c1ccc(OC(F)(F)F)cc1	in the range around 125 µM

Structure (SMILES)	EC50
Cc1cc(=O)n(-c2cccc(NC(N)=O)c2)cc1-c1cnn(C)c1	< 50 µM
Cn1cc(-c2cn(-c3ccc(OC(F)(F)F)cc3)c(=O)c3c2ccn3C2CC2)cn1	< 50 µM
CCOc1ccc(-n2cc(-c3cnn(C)c3)c(OC3CCOCC3)cc2=O)c(C)c1	in the range around 125 µM
Cn1cc(-c2cn(-c3ccc(OC(F)(F)F)cc3)c(=O)c3[nH]nnc23)cn1	< 50 µM
CCOc1ccc(-n2cc(-c3cnn(C)c3)c3nn(CC)nc3c2=O)c(C)c1	in the range around 125 µM
CCn1nc2c(-c3cnn(C)c3)cn(-c3ccc(OC(F)(F)F)cc3)c(=O)c2n1	< 50 µM
CCn1nnc2c(=O)[nH]cc(-c3cnn(C)c3)c21	> 200 µM
O=c1c2c(ccn2C2CC2)c(-c2cn[nH]c2)cn1-c1ccc(OC(F)(F)F)cc1	< 50 µM
CCn1nnc2c(=O)n(-c3ccc(OC(F)(F)F)cc3)cc(-c3ccc(F)cc3)c21	< 50 µM
CCOc1ccc(-n2cc(-c3cnn(C)c3)c(NCc3cc(F)cc(F)c3)cc2=O)c(C)c1	< 50 µM
CCn1cnc2c(-c3cnn(C(C)C)c3)cn(-c3ccc(OC(F)(F)F)cc3)c(=O)c21	< 50 µM
CC(C)n1ccc2c(-c3cnn(C)c3)cn(-c3ccc(OC(F)(F)F)cc3)c(=O)c21	< 50 µM
CCn1cnc2c(=O)n(-c3ccc(OC(F)(F)F)cc3)cc(-c3cnn(C)c3)c21	> 200 µM
CCOc1ccc(-n2cc(-c3cnn(C)c3)c(N(C)Cc3ccccc3)cc2=O)c(C)c1	< 50 µM
Cn1cc(-c2cn(-c3ccc(OC(F)(F)F)cc3)c(=O)c3nn(CCF)nc23)cn1	< 50 µM
Cc1nc2c(=O)n(-c3ccc(OC(F)(F)F)cc3)cc(-c3cnn(C)c3)c2n1C	in the range around 125 µM
CCn1nc2c(-c3ccc(F)cc3)cn(-c3ccc(OC(F)(F)F)cc3)c(=O)c2n1	> 200 µM
CCOc1ccc(-c2c(-c3ccc(F)cc3)c(=O)c2=O)c(C)c1	< 50 µM
Cn1cc(-c2cn(-c3ccc(OC(F)(F)F)cc3)c(=O)c3c2nnn3CCF)cn1	in the range around 125 µM
Cn1cc(-c2cn(-c3ccc(OC(F)(F)F)cc3)c(=O)c3ncn(C)c23)cn1 [AKEX-0011]	< 50 µM
